Results as given in patent US6867207B2, “IL-5 inhibiting 6-azauracil derivatives” (Janssen Pharmaceutica N.V., priority 1997, dated 2005).

The compounds below were run on IL-5 production (assay: In vitro inhibition of IL-5 production in human blood (phytohemagglutinin-stimulated whole blood, ELISA)). Settings: test dose 1×10^−6 M, 48 hours.
Assay type: cell-based
Summary of the method: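 Heparinised blood from healthy male donors, diluted threefold in RPMI 1640, preincubated 60 min at 37° C with compound (0.02% DMSO vehicle), then stimulated with 2 μg/mL phytohemagglutinin for 48 h. Supernatant IL-5 measured by ELISA; percentage inhibition at 1×10^−6 M or 1×10^−5 M.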
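Also: values marked with an asterisk were tested at 10 µM and unmarked values at 1 µM.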

SMILES	% inh. (percentage inhibition of IL-5 production)
O=c1cnn(-c2cc(Cl)c(C(CSc3ccccn3)c3ccc(Cl)cc3)c(Cl)c2)c(=O)[nH]1 (racemic) [Compound 422, (±)-2-[3,5-dichloro[1-(4-chlorophenyl)-2-(2-pyridinylthio)ethyl]phenyl-1,2,4-triazine-3,5(2H,4H)-dione]	87%
O=c1cnn(-c2cc(Cl)c(C(c3ccc(Cl)cc3)c3nc(-c4cccc(F)c4)cs3)c(Cl)c2)c(=O)[nH]1 (single isomer, unassigned) [Comp 318]	81%
O=c1cnn(-c2cc(Cl)c(C(c3ccc(Cl)cc3)c3nc(-c4cccc(F)c4)cs3)c(Cl)c2)c(=O)[nH]1 (single isomer, unassigned) [Comp 319]	84%
O=c1cnn(-c2cc(Cl)c(C(Sc3ncccn3)c3ccc(Cl)cc3)c(Cl)c2)c(=O)[nH]1 (single isomer, unassigned) [Compound 346]	86%
O=c1cnn(-c2cc(Cl)c(C(Sc3ncccn3)c3ccc(Cl)cc3)c(Cl)c2)c(=O)[nH]1 (single isomer, unassigned) [Compound 347]	8%
O=c1cnn(-c2ccc(C(O)(c3ccc(Cl)cc3)c3nc4ccccc4s3)c(Cl)c2)c(=O)[nH]1 (stereo not drawn) [Comp 111]	61%
O=c1cnn(-c2ccc(C(c3ccncc3)c3ccc(Cl)cc3)c(Cl)c2)c(=O)[nH]1 (stereo not drawn) [Comp 112]	62%
O=c1cnn(-c2cc(Cl)c(C(c3ccncc3)c3ccc(Cl)cc3)c(Cl)c2)c(=O)[nH]1 (stereo not drawn) [Comp 113]	76%
O=c1cnn(-c2ccc(C(c3ccc(Cl)cc3)c3ccccn3)c(Cl)c2)c(=O)[nH]1 (stereo not drawn) [Comp 114]	40%
O=c1cnn(-c2cc(Cl)c(C(c3ccc(Cl)cc3)c3ccccn3)c(Cl)c2)c(=O)[nH]1 (stereo not drawn) [Comp 115]	71%
O=c1cnn(-c2cc(Cl)c(C(c3ccc(Cl)cc3)c3cccnc3)c(Cl)c2)c(=O)[nH]1 (stereo not drawn) [Comp 116]	74%
O=c1cnn(-c2ccc(C(O)(c3ccc(Cl)cc3)c3cccnc3)c(Cl)c2)c(=O)[nH]1 (stereo not drawn) [Comp 117]	34%
O=c1cnn(-c2ccc(C(c3ccc(Cl)cc3)c3nnc(-c4ccccc4)s3)c(Cl)c2)c(=O)[nH]1 (stereo not drawn) [Comp 414]	30%
NC(c1ccc(Cl)cc1)(c1nc2ccccc2s1)c1ccc(-n2ncc(=O)[nH]c2=O)cc1Cl (stereo not drawn) [Comp 416]	79%
COC(c1ccc(Cl)cc1)(c1nc2ccccc2s1)c1ccc(-n2ncc(=O)[nH]c2=O)cc1Cl (stereo not drawn) [Comp 418]	47%
O=c1cnn(-c2cc(Cl)c(C(c3ccc(Cl)cc3)c3nc4ccccc4s3)c(Cl)c2)c(=O)[nH]1 (stereo not drawn) [Comp 421]	86%
Cn1cc(-c2ccccc2)nc1C(c1ccc(Cl)cc1)c1c(Cl)cc(-n2ncc(=O)[nH]c2=O)cc1Cl (stereo not drawn) [Comp 425]	70%
Cc1oc(C(c2ccc(Cl)cc2)c2c(Cl)cc(-n3ncc(=O)[nH]c3=O)cc2Cl)nc1-c1ccccc1 (stereo not drawn) [Comp 426]	92%
O=c1cnn(-c2cc(Cl)c(C(c3ccc(Cl)cc3)c3nnc(-c4ccccc4)s3)c(Cl)c2)c(=O)[nH]1 (stereo not drawn) [Comp 427]	72%
Cn1c(-c2ccccc2)nnc1C(c1ccc(Cl)cc1)c1c(Cl)cc(-n2ncc(=O)[nH]c2=O)cc1Cl.O (stereo not drawn) [Comp 428]	66%
Cn1c(C(c2ccc(Cl)cc2)c2c(Cl)cc(-n3ncc(=O)[nH]c3=O)cc2Cl)cnc1-c1ccccc1 (stereo not drawn) [Comp 430]	89%
Cc1oc(C(c2ccc(Cl)cc2)c2c(Cl)cc(-n3ncc(=O)[nH]c3=O)cc2Cl)nc1-c1ccc(F)cc1 (stereo not drawn) [Comp 431]	67%
O=c1cnn(-c2ccc(C(c3ccc(Cl)cc3)c3nc4sccn4c3-c3ccccc3)c(Cl)c2)c(=O)[nH]1 (stereo not drawn) [Comp 432]	82%
O=c1cnn(-c2ccc(C(C3=C(c4ccccc4)SC4=NCCN43)c3ccc(Cl)cc3)c(Cl)c2)c(=O)[nH]1 (stereo not drawn) [Comp 433]	53%
O=c1cnn(-c2ccc(C(Sc3nccc(-c4cccs4)n3)c3ccc(Cl)cc3)c(Cl)c2)c(=O)[nH]1 (stereo not drawn) [Compound 84]	73%
Cc1nnc(SC(c2ccc(Cl)cc2)c2ccc(-n3ncc(=O)[nH]c3=O)cc2Cl)[nH]c1=O (stereo not drawn) [Compound 85]	38%

SMILES	% inh. (percentage inhibition of IL-5 production)
O=c1cnn(-c2ccc(C(Sc3ccccn3)c3ccc(Cl)c(C(F)(F)F)c3)c(Cl)c2)c(=O)[nH]1 (stereo not drawn) [Compound 86]	84%
Nc1cc(O)nc(SC(c2ccc(Cl)cc2)c2ccc(-n3ncc(=O)[nH]c3=O)cc2Cl)n1 (stereo not drawn) [Compound 87]	9%
O=c1cnn(-c2ccc(C(Sc3ccc(C(F)(F)F)cn3)c3ccc(Cl)cc3)c(Cl)c2)c(=O)[nH]1 (stereo not drawn) [Compound 88]	26%
O=c1cnn(-c2ccc(C(Sc3nnc(C(F)(F)F)[nH]3)c3ccc(Cl)cc3)c(Cl)c2)c(=O)[nH]1 (stereo not drawn) [Compound 89]	19%
O=c1cnn(-c2ccc(C(SC3CCCCC3)c3ccc(Cl)cc3)c(Cl)c2)c(=O)[nH]1 (stereo not drawn) [Compound 90]	60%
O=c1cnn(-c2cc(Cl)c(C(c3ccc(Cl)cc3)c3nnc(-c4ccccc4)o3)c(Cl)c2)c(=O)[nH]1 (stereo not drawn) [Compound 189, (A)-2-[3,5-dichloro-4-[(4-chlorophenyl)(5-phenyl-1,3,4-oxadizol-2-yl)methyl]phenyl]-1,2,4-triazine-3,5(2H,4H)-dione]	82%
O=c1cnn(-c2cc(Cl)c(C(c3ccc(Cl)cc3)c3nnc(-c4ccccc4)o3)c(Cl)c2)c(=O)[nH]1 (stereo not drawn) [Compound 190, (B)-2-[3,5-dichloro-4-[(4-chlorophenyl)(5-phenyl-1,3,4-oxadizol-2-yl)methyl]phenyl]-1,2,4-triazine-3,5(2H,4H)-dione]	83%
O=c1cnn(-c2cc(Cl)c(C(Sc3nc4cccnc4s3)c3ccc(Cl)cc3)c(Cl)c2)c(=O)[nH]1 (stereo not drawn) [Compound 376]	92%
O=c1cnn(-c2cc(Cl)c(C(Sc3ccccn3)c3ccc(Cl)cc3)c(Cl)c2)c(=O)[nH]1 (stereo not drawn) [Compound 377]	87%
O=c1cnn(-c2cc(Cl)c(C(Sc3ccccn3)c3ccc(Cl)c(C(F)(F)F)c3)c(Cl)c2)c(=O)[nH]1 (stereo not drawn) [Compound 378]	91%
O=c1cnn(-c2cc(Cl)c(C(Sc3nc4ccccc4o3)c3ccc(Cl)c(C(F)(F)F)c3)c(Cl)c2)c(=O)[nH]1 (stereo not drawn) [Compound 379]	95%
O=c1cnn(-c2cc(Cl)c(C(Sc3nc(-c4ccccc4)cs3)c3ccc(Cl)cc3)c(Cl)c2)c(=O)[nH]1 (stereo not drawn) [Compound 380]	95%
O=c1cnn(-c2cc(Cl)c(C(Sc3nc(-c4ccccc4)cs3)c3ccc(Cl)c(C(F)(F)F)c3)c(Cl)c2)c(=O)[nH]1 (stereo not drawn) [Compound 381]	95%
O=c1cnn(-c2cc(Cl)c(C(Sc3nc4cccnc4s3)c3ccc(Cl)c(C(F)(F)F)c3)c(Cl)c2)c(=O)[nH]1 (stereo not drawn) [Compound 382]	95%
O=c1cnn(-c2cc(Cl)c(C(Sc3nc4ccccc4o3)c3ccc(Cl)cc3)c(Cl)c2)c(=O)[nH]1 (stereo not drawn) [Compound 383]	78%
O=c1cnn(-c2cc(Cl)c(C(Sc3nc4ccccc4s3)c3ccc(Cl)cc3)c(Cl)c2)c(=O)[nH]1 (stereo not drawn) [Compound 384]	95%
O=c1cnn(-c2cc(Cl)c(C(Sc3nc4ccccc4s3)c3ccc(Cl)c(C(F)(F)F)c3)c(Cl)c2)c(=O)[nH]1 (stereo not drawn) [Compound 385]	95%
O=c1cnn(-c2cc(Cl)c(C(SC3=NCCS3)c3ccc(Cl)c(C(F)(F)F)c3)c(Cl)c2)c(=O)[nH]1 (stereo not drawn) [Compound 386]	97%
O=c1cnn(-c2cc(Cl)c(C(Sc3cscn3)c3ccc(Cl)c(C(F)(F)F)c3)c(Cl)c2)c(=O)[nH]1 (stereo not drawn) [Compound 387]	93%
O=c1cnn(-c2cc(Cl)c(C(Sc3nc4ccc([N+](=O)[O-])cc4s3)c3ccc(Cl)c(C(F)(F)F)c3)c(Cl)c2)c(=O)[nH]1 (stereo not drawn) [Compound 388]	90%
Nc1ccc2nc(SC(c3ccc(Cl)c(C(F)(F)F)c3)c3c(Cl)cc(-n4ncc(=O)[nH]c4=O)cc3Cl)sc2c1 (stereo not drawn) [Compound 389]	91%
O=c1cnn(-c2cc(Cl)c(C(Sc3nc(-c4cccs4)cs3)c3ccc(Cl)c(C(F)(F)F)c3)c(Cl)c2)c(=O)[nH]1 (stereo not drawn) [Compound 390]	89%
O=c1cnn(-c2cc(Cl)c(C(Sc3nnc(-c4ccccc4)o3)c3ccc(Cl)c(C(F)(F)F)c3)c(Cl)c2)c(=O)[nH]1 (stereo not drawn) [Compound 391]	97%
Cc1sc(SC(c2ccc(Cl)c(C(F)(F)F)c2)c2c(Cl)cc(-n3ncc(=O)[nH]c3=O)cc2Cl)nc1-c1ccccc1 (stereo not drawn) [Compound 392]	87%
Nc1ccc(SC(c2ccc(Cl)c(C(F)(F)F)c2)c2c(Cl)cc(-n3ncc(=O)[nH]c3=O)cc2Cl)cc1 (stereo not drawn) [Compound 393]	93%
